For one test, the target named is T1, CYP1A2 (Homo sapiens, UniProt P05177).
T1 sequence (P05177 1-516): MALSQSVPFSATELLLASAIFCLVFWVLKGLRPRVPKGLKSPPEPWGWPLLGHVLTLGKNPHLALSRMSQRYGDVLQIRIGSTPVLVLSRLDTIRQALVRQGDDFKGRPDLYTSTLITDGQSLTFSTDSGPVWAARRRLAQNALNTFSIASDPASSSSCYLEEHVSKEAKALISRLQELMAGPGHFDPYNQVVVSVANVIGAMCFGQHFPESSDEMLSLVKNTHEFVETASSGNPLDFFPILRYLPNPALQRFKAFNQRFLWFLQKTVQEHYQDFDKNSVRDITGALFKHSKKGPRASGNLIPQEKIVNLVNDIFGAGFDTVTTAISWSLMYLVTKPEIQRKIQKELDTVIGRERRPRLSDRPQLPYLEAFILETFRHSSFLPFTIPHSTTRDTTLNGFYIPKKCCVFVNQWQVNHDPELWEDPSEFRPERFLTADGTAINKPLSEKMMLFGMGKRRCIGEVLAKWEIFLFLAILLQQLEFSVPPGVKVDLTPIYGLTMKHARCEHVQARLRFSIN
Description: CYP1A2 inhibition (fluorescent substrate CEC). The format is in vitro ADME. The following applies: read-out: Cyp IC50 (μM) 1A2. How it is done:
(§1) CYP (Cytochrome P450) enzymes are the major drug metabolizing enzymes present in the liver. The inhibition of CYP enzyme activity (IC50) for each of CYP1A2, CYP2C19, CYP2C9, CYP2D6, CYP3A4(BFC) and CYP3A4(BQ) is determined for compounds, where inhibition of metabolism of a known substrate leads to a decrease in the fluorescence of the metabolized product. The fluorescence of the product is monitored as a function of compound concentration. Compounds are dissolved in dimethyl sulfoxide to a concentration of 100 mM. These are diluted […], into 82 μL of acetonitrile. An 11 μL aliquot of this solution is then added to 204 μL of cofactor mix (1.3% NADPH Regeneration system Solution A, 1.04% NADPH Regeneration system Solution B from BD Biosciences, 5% acetonitrile and 0.05% dimethyl sulfoxide). These are then serially diluted 1:1 (160 μL to 160 μL co-factor mix) for a total of 10 points. A 10 μL aliquot of this final mixture is dispensed into 384 well assay plates and incubated for 10 minutes at 37° C. Enzyme and substrate mix (10 μL; 0.5 pmol CYP1A2/5 μM CEC; 1.0 pmol CYP2C9/75 μM MFC; 0.5 pmol CYP2C19/25 μM CEC; 1.5 pmol CYP2D6/1.5 μM AMMC; 1.0 pmol CYP3A4/50 μM BFC; or 1.0 pmol CYP3A4/40 μM BQ) is added to these assay plates. Assay plates are incubated at 37° C. (CYP1A2-15 min; CYP2C9-45 min; CYP2C19, 2D6 and 3A4-30 min) and read in a Tecan Safire 2 plate reader (CYP1A2, 2C19 and 3A4 409 ex/460 em; CYP2C9 and 2D6 409 ex/530 em). The signal versus compound concentration is used to determine the IC50. The enzymes and substrates for this assay are obtained from BD Biosciences.

The target of another test is CYP2C19 (Homo sapiens, UniProt P33261). Description: CYP2C19 inhibition (fluorescent substrate CEC). The format is in vitro ADME. The following applies: read-out: Cyp IC50 (μM) 2C19. How it is done:
as §1

The target in another test is CYP2C9 (Homo sapiens, UniProt P11712). Put plainly: CYP2C9 inhibition (fluorescent substrate MFC). The format is in vitro ADME. The following applies: read-out: Cyp IC50 (μM) 2C9. The method, then: as §1
A further test has as its target CYP2D6 (Homo sapiens, UniProt P10635). Put plainly: CYP2D6 inhibition (fluorescent substrate AMMC). The format is in vitro ADME. To be noted: read-out: Cyp IC50 (μM) 2D6. How it is done:
as §1

For another test, the target named is CYP3A4(BFC) (Homo sapiens, UniProt P08684). Put plainly: CYP3A4 inhibition (substrate BFC). The class given is in vitro ADME. The following applies: read-out: Cyp IC50 (μM) 3A4(BFC). The method, then: as §1
Another test deals with CYP3A4(BQ) (Homo sapiens, UniProt P08684). Put plainly: CYP3A4 inhibition (substrate BQ). The class given is in vitro ADME. To be noted: read-out: Cyp IC50 (μM) 3A4(BQ). The method, then: as §1
For a further test, the target named is B-Raf (Homo sapiens, UniProt P15056). Description: B-Raf kinase activity assay (AlphaScreen, biotin-MEK1 substrate). To be noted: 100 μM ATP, 100 nM biotin-MEK1, 45 minutes at room temperature; read-out: Biochemical activity (IC50 μM) B-Raf. The procedure, abridged: (§2)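 AlphaScreen detection of phospho-MEK1 uses anti-phospho-MEK1/2 antibody and donor/acceptor beads, incubated 3 h. The kinase step runs 45 min at room temperature with 0.1 ng enzyme, 100 nM biotin-MEK1 and 100 μM ATP in 50 mM HEPES pH 7.0. IC50 is derived from eight compound concentrations.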
For orientation: Alpha assays give light when donor and acceptor beads are brought close together.

The target in the next test is B-Raf V600E (Homo sapiens, UniProt P15056, V600E). Put plainly: B-Raf V600E kinase activity assay (AlphaScreen, biotin-MEK1 substrate). To be noted: 100 μM ATP, 100 nM biotin-MEK1, 45 minutes at room temperature, read-out: Biochemical activity (IC50 μM) V600E. Summed up: as §2
A further test has as its target c-Raf-1 (Homo sapiens, UniProt P04049). Put plainly: c-Raf-1 kinase activity assay (AlphaScreen, biotin-MEK1 substrate). The following applies: 100 μM ATP, 100 nM biotin-MEK1, 45 minutes at room temperature; read-out: Biochemical activity (IC50 μM) c-Raf-1. Summed up:
as §2

Test [1] concerns COLO205 colon adenocarcinoma (B-Raf V600E mutation). Description: COLO205 cell growth inhibition (ATPlite luminescence). The class given is cell-based. The following applies: Homo sapiens, COLO 205, 72 h, COLO205 cells, incubated 3 days with compound. How it is done:
Compounds are assessed in a variety of cell based assays. For example human cell lines with B-Raf V600E mutation (A375 melanoma, SKMEL3 melanoma, and COLO205 colon adenocarcinoma), as well as tumorigenic cell lines with wild-type B-RAF (SW620 colon adenocarcinoma) or with Ras mutations (SKMEL2 melanoma and IPC298 melanoma). Similar assays may be used to assess additional tumorigenic cell lines with Ras mutations, including, but not limited to, M202, M207, M243, M244, M296, S117, HCT116, HCT15, DLD1, MiaPaCa, A549, NCI-H23, NCI-H460, HOP62, MDA-MB231, Hs-578T, HL60, MOLT-4, and CCRF-CEM.
On day 1, cells are counted, then centrifuged in a conical tube for 5 minutes at 1000 rpm. The supernatant is removed and cells are re-suspended as follows: • SW620 (ATCC catalog #CCL-27): resuspend in Leibovitz's L-15 medium, 2 mM L-glutamine, 10% fetal bovine serum to 6×10^4 cells/mL. • A375 (ATCC catalog #CRL-1619): resuspend in Dulbecco's modified Eagle's medium, 4 mM L-glutamine, 4.5 g/L D-glucose, 10% fetal bovine serum to 6×10^4 cells/mL. • COLO205 (ATCC catalog #CCL-222): resuspend in RPMI 1640, 2 mM L-glutamine, 1.5 g/L sodium bicarbonate, 4.5 g/L D-glucose, 10 mM HEPES, 1.0 mM sodium pyruvate, 10% fetal bovine serum to 6×10^4 cells/mL. • SKMEL2 (ATCC catalog #HTB-68): resuspend in Minimum Eagle essential medium, 2 mM L-glutamine, 1.5 g/L sodium bicarbonate, 0.1 mM non-essential amino acids, 1.0 mM sodium pyruvate, 10% fetal bovine serum to 6×10^4 cells/mL. • SKMEL3 (ATCC catalog #HTB-69): resuspend in McCoy's 5A medium, 1.5 mM L-glutamine, 15% fetal bovine serum to 6×10^4 cells/mL. • IPC298 (DSMZ catalog #ACC 251): resuspend in RPMI 1640, 2 mM L-glutamine, 10% fetal bovine serum to 6×10^4 cells/mL.
The cells are plated, 50 μL in each well of a 96-well dish (Corning 3610) and incubated at 37° C. in 5% CO2 overnight, cells plated to a final concentration of cells as follows:
On day 2, compound at a maximum concentration of 5 mM is serially diluted 1:3 (e.g. 10 μL with 30 μL dimethyl sulfoxide) for a total of 8 point titration with DMSO as a control. A 1 μL aliquot of each dilution point and control is added to 249 μL growth media and 50 μL is added to a well containing cells, providing 10 μM compound at the maximum concentration point. The cells are incubated for 3 days at 37° C. in 5% CO2.
On day 5, ATPlite 1 step Luminescence Assay System (Perkin Elmer #6016739) is brought to room temperature along with the cell cultures. ATPlite is added 25 μL to each well, shake for 2 minutes, and the cells are incubated at room temperature for 10 minutes, then luminescence is read on Safire reader. The measured luminescence correlates directly with cell number, such that the reading as a function of compound concentration is used to determine the IC50 value.
It is understood that the results of these assays may vary as assay conditions are varied. Inhibition levels determined under the conditions described herein represent a relative activity for the compounds tested under the specific conditions employed. The cell based assays are likely to show variability due to the complexity of the system and the sensitivity thereof to any changes in the assay conditions. […] Results for compounds that are tested and show substantially no inhibition below the highest tested concentration are represented as “-” in the tables below. In some instances, the compounds were not tested in all of the assays, or assay results were not valid, as indicated by NA in the tables below.

Bounds are passed on as bounds.

Sequence of B-Raf (P15056 whole entry): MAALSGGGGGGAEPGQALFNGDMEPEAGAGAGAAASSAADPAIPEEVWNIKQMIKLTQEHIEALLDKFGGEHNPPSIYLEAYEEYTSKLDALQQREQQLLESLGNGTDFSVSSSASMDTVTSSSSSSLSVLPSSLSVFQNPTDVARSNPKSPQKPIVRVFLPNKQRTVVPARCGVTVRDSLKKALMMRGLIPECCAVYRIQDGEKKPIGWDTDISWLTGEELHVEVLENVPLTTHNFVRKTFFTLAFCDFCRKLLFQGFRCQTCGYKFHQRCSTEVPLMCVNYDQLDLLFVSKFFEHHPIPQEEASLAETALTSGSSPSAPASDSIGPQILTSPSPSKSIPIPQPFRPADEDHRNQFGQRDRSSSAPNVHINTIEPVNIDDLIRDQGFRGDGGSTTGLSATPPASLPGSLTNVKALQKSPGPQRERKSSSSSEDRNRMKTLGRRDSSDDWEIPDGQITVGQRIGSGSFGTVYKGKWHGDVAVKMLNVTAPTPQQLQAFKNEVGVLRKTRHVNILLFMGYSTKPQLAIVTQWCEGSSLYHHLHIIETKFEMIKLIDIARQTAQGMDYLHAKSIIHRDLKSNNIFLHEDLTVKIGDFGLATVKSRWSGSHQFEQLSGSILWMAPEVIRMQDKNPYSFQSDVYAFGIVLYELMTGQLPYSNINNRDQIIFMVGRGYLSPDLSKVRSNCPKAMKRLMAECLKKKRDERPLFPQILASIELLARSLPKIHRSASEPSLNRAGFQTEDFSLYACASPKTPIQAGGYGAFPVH
Sequence of c-Raf-1 (P04049 whole entry Y340D/Y341D, form open): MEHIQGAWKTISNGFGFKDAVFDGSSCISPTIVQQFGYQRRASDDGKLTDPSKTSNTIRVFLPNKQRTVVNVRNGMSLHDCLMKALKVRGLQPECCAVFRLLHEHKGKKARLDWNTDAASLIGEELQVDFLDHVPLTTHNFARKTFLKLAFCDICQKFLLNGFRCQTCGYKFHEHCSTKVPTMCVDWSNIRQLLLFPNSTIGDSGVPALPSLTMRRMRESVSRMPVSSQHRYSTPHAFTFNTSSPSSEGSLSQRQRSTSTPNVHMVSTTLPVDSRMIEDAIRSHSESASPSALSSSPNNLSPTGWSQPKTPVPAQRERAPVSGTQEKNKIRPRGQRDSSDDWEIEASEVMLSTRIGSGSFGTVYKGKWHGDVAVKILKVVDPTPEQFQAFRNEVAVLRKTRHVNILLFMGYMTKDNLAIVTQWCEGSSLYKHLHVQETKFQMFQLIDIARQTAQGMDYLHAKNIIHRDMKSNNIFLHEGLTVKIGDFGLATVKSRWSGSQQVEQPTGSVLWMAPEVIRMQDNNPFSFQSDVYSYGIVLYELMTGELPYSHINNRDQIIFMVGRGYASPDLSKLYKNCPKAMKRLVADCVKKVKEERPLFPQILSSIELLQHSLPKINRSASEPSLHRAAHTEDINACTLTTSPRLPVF
Sequence of B-Raf V600E (P15056 whole entry V600E): as the sequence (P15056 whole entry) above, with V600E counted along it
Sequence of CYP3A4(BQ) (P08684 whole entry): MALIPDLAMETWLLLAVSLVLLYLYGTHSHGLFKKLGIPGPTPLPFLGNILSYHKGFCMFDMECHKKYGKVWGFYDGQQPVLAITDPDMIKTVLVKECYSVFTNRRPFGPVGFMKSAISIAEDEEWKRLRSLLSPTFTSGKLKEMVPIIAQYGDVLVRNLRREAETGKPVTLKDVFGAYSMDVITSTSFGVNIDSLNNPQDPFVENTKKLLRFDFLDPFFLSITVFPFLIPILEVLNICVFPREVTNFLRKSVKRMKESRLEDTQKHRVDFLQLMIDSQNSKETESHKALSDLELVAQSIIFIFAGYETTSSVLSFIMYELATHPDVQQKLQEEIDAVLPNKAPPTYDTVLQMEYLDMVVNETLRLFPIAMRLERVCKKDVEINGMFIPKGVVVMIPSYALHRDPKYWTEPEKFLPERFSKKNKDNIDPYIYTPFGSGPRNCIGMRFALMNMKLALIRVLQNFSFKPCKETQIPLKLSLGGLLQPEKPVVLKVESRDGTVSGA
Sequence of CYP3A4(BFC) (P08684 whole entry): as above
Sequence of CYP2C9 (P11712 whole entry): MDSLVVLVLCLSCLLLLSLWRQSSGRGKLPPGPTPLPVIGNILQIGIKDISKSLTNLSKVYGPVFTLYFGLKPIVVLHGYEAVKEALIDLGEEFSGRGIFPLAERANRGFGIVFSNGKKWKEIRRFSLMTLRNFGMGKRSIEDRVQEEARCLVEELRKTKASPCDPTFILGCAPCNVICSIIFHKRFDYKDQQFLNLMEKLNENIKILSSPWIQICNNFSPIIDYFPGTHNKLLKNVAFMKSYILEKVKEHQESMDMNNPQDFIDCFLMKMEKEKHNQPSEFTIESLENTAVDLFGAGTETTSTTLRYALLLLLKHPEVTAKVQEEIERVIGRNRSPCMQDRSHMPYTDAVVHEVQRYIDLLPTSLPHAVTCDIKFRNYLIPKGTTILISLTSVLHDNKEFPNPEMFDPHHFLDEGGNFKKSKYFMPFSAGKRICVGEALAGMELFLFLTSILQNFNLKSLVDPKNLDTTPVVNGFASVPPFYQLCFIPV
Sequence of CYP2D6 (P10635 whole entry): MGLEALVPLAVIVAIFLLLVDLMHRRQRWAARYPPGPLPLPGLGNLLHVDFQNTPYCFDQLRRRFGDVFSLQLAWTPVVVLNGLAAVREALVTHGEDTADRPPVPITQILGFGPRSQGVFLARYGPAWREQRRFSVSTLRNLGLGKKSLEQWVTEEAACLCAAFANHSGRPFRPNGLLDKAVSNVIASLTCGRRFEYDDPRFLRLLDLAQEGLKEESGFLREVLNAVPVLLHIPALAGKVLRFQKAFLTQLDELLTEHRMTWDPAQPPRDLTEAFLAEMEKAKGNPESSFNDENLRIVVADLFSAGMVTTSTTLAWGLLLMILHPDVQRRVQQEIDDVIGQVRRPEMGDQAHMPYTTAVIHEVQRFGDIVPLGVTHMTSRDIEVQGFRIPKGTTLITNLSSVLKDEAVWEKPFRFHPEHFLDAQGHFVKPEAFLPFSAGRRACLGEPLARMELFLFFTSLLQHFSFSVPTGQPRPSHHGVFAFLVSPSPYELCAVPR
Sequence of CYP2C19 (P33261 whole entry): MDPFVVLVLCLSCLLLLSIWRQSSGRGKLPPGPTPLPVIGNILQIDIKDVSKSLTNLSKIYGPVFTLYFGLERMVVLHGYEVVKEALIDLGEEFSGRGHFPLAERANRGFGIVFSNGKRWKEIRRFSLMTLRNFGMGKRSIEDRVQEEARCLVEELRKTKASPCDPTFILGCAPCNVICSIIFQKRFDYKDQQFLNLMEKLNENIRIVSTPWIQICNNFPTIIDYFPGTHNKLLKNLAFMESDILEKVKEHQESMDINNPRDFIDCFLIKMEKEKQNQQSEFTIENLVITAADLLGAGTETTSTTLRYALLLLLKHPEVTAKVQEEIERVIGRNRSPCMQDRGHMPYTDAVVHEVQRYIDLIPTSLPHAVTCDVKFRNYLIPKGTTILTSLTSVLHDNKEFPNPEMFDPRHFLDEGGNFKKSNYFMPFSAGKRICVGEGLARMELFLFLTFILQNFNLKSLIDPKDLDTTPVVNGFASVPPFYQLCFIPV

Take `CCCS(=O)(=O)Nc1ccc(F)c(C(=O)c2c[nH]c3ncc(-c4ccc5ncccc5c4)cc23)c1F` [P-0034, Propane-1-sulfonic acid [2,4-difluoro-3-(5-quinolin-6-yl-1H-pyrrolo[2,3-b]pyridine-3-carbonyl)-phenyl]-amide]: the IC50 at CYP1A2, at CYP2C19, on CYP2C9, at CYP2D6, on CYP3A4(BFC) and at CYP3A4(BQ) was above 10 µM throughout.

Take `CCCS(=O)(=O)Nc1ccc(F)c(C(=O)c2c[nH]c3ncc(-c4ccc5c(c4)C(=O)NC5)cc23)c1F` [P-1702, Propane-1-sulfonic acid {2,4-difluoro-3-[5-(3-oxo-2,3-dihydro-1H-isoindol-5-yl)-1H-pyrrolo[2,3-b]pyridine-3-carbonyl]-phenyl}-amide]: the IC50 is below 0.1 µM on B-Raf, below 0.1 µM on B-Raf V600E, below 0.1 µM at c-Raf-1 and below 1 µM in test [1].

Regarding `CCCS(=O)(=O)Nc1ccc(F)c(C(=O)c2c[nH]c3ncc(-c4ccc5c(c4)CC(=O)N5)cc23)c1F` [P-1703, Propane-1-sulfonic acid {2,4-difluoro-3-[5-(2-oxo-2,3-dihydro-1H-indol-5-yl)-1H-pyrrolo[2,3-b]pyridine-3-carbonyl]-phenyl}-amide], the IC50 at B-Raf was below 0.1 µM; at B-Raf V600E, below 0.1 µM; on c-Raf-1, below 0.1 µM; in [1], below 1 µM.

Regarding `CCCS(=O)(=O)Nc1ccc(F)c(C(=O)c2c[nH]c3ncc(C(=O)Nc4cccnc4)cc23)c1F` [P-1801, 3-[2,6-Difluoro-3-(propane-1-sulfonylamino)-benzoyl]-1H-pyrrolo[2,3-b]pyridine-5-carboxylic acid pyridin-3-ylamide], the IC50 on B-Raf was below 0.1 µM; on B-Raf V600E it was below 0.1 µM; on c-Raf-1, below 0.1 µM; in test [1] it was above 1 µM.

In general, IC50 refers to the concentration that gives 50% inhibition.

Values taken from US9440969B2, “Compounds and methods for kinase modulation, and indications therefor” (PLEXXIKON INC., priority 2009, dated 2016).
